Measured values: article PMC7915588, “Polyphyllin D Shows Anticancer Effect through a Selective Inhibition of Src Homology Region 2-Containing Protein Tyrosine Phosphatase-2 (SHP2)” (Molecules, 2021)

Molecular target: T1, PTPN14 (PTP36) (Homo sapiens, UniProt Q15678)
T1 construct: 908-1187
T1 sequence (Q15678 1-1187): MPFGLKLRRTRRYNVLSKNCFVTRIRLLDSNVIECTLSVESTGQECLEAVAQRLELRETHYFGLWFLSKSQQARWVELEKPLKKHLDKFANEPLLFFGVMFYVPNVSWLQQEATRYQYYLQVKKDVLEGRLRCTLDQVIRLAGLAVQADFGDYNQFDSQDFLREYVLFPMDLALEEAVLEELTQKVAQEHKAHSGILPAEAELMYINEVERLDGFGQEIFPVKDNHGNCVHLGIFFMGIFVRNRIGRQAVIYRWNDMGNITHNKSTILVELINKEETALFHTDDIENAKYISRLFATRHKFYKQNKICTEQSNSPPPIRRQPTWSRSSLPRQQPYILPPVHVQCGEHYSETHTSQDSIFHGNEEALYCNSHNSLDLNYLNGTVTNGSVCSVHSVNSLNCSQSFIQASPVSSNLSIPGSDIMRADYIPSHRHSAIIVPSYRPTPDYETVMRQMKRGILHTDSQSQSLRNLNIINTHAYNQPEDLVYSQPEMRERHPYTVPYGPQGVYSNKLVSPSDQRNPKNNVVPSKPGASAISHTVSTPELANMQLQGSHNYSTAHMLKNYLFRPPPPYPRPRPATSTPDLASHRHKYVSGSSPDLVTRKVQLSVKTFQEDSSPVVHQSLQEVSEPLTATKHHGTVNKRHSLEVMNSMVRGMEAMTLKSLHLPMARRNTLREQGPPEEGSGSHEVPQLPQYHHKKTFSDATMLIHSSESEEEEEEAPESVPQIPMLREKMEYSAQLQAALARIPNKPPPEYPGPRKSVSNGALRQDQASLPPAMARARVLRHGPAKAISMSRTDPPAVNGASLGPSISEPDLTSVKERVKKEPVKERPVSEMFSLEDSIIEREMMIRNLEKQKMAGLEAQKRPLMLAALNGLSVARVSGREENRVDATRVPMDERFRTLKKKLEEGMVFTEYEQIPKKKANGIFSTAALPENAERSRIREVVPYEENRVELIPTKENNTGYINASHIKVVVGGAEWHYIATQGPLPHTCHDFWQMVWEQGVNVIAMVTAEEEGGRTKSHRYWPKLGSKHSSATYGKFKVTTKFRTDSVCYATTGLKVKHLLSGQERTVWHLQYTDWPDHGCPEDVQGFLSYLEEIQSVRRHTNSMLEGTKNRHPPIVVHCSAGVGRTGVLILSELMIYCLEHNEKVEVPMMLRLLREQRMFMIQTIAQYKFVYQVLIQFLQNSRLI
Experiment: biochemical
Design: Fluorogenic phosphatase assay, DiFMUP hydrolysis by recombinant PTPs, initial velocity, Ex/Em 355/460 nm
Settings: read-out: Inhibition by 20 µM polyphyllin D (%)
Procedure: Enzymatic reactions were initiated by the addition of SHP2 (final concentration of 10 nM) to a solution of each of the 658 phytochemical compounds (final concentration of 20 µM) in reaction buffer (20 mM bis-tris pH 6.0, 150 mM NaCl, 2.5 mM dithiothreitol, and 0.01% Triton X-100) containing DiFMUP (final concentration of 140 µM). Changes in the fluorescence intensities were measured continuously for 10 min at Ex/Em = 355/460 nm on a VictorTM X4 multilabel plate reader. Enzyme inhibition was estimated by comparing the reaction velocity in the presence of each compound with that in the absence of any compound. Inhibition of the other PTPs was measured in the same way. Next, we established a screening strategy using a DiFMUP substrate to identify a natural product that inhibits SHP2 activity. Initially, we screened 658 compounds at 20 µM using a 96-well plate system (Figure 2A). […] The selected compounds were tested at 20 µM for SHP2 inhibition, and 14 additional non-receptor-type PTPs (PTP1B, TCPTP, PTPH1, STEP, SHP1, HePTP, PTP-MEG2, PTP-PEST, PTP-BAS, PTP36, PTP-HSCF, PTPD1, LYP, and HD-PTP) were used to investigate the inhibition selectivity. The results were visualized using a heat map analysis by GraphPad Prism (Figure 2B and Table S2 in Supplementary Materials). To identify new SHP2 anticancer natural products, we first performed cloning to express SHP2 protein and then purified it. PTPN11 (Gene ID: 5781) encoding human SHP2 (amino acids sequences 1 to 526) with several extra amino acids were cloned into the MBP-pET 28a (+) vector, which was successfully used to overexpress PTPs with enhanced solubility in an Escherichia coli expression system. Information on amino acids for 15 non-receptor-type PTPs including SHP2 is summarized in Table S3 in the Supplementary Materials. SHP2 was overexpressed in RosettaTM (DE3) and purified using a metal affinity resin (Figure S1 in Supplementary Materials). […] The kcat, KM, and kcat/KM values were determined to be 270 min^−1, 70 μM, and 3.9 μM^−1min^−1, respectively, using the Lineweaver–Burk plot analysis (Table S1 in Supplementary Materials).

C[C@@H]1CC[C@@]2(OC1)O[C@H]1C[C@H]3[C@@H]4CC=C5C[C@@H](O[C@@H]6O[C@H](CO)[C@@H](O[C@@H]7O[C@@H](CO)[C@H](O)[C@H]7O)[C@H](O)[C@H]6O[C@@H]6O[C@@H](C)[C@H](O)[C@@H](O)[C@H]6O)CC[C@]5(C)[C@H]4CC[C@]3(C)[C@H]1[C@@H]2C [polyphyllin D]
inhibition at 20 µM: 0%
